Test results as given in patent US12037344B2, “NLRP3 modulators” (INNATE TUMOR IMMUNITY, INC., priority 2018, dated 2024).
Read-outs that look alike come from different tables or passages of the source.

Experiments:
TLR8 = molecular target: T1, TLR8 (Homo sapiens, UniProt Q9NR97); assay: In vitro human TLR8 binding reporter assay (HEK-Blue, NF-kB/AP1-inducible SEAP); format: cell-based; details: read-out: TLR8 Agonist EC50
T1 construct: human HEK-Blue cells co-expressing a TLR7 or TLR8 gene
T1 sequence (Q9NR97 27-1041): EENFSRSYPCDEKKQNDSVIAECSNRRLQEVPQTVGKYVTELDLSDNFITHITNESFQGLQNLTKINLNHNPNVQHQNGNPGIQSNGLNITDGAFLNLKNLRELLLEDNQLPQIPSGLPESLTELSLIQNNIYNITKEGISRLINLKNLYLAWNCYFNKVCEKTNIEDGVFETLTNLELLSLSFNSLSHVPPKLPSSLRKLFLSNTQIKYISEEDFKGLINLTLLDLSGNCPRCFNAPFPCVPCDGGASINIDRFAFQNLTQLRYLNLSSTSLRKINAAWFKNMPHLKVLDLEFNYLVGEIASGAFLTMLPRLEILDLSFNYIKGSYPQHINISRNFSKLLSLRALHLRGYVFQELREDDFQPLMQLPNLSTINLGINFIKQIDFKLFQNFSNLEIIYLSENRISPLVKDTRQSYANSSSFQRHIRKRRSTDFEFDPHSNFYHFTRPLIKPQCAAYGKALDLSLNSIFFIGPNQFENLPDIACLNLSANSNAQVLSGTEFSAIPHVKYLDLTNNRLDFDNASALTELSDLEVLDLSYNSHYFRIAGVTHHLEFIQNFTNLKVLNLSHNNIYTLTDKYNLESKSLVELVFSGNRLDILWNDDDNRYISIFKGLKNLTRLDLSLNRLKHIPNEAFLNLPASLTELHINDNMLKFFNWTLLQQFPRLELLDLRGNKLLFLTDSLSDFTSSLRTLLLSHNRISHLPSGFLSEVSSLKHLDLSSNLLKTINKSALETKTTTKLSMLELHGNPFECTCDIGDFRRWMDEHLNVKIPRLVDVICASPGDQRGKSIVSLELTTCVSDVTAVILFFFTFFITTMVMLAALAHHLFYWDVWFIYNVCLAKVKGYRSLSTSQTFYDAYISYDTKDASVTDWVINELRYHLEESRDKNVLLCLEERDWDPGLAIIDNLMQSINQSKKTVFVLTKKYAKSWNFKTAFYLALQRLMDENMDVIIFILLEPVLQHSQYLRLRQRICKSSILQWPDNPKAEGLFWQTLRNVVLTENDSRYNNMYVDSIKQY
Summary of the method: (§1)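 HEK-Blue cells expressing human TLR7 or TLR8 with NF-kB/AP1-inducible SEAP reporter, plated 24 h, then compound-treated 18 h at 37° C, 5% CO2. EC50 normalized to 100% Ymax set by 50 μM reference standard.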

THP-1 cells = assay: Measurement of IL-1β production, hTRF protocol (second alternative procedure), THP-1 cells; format: cell-based, human; details: read-out: NLRP3 hILIB EC50
Summary of the method: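 THP-1 cells differentiated overnight with 50 ng/ml PMA, then plated at 50,000 cells/well in RPMI with 2% FBS onto serial compound dilutions (top final concentration 10 μM) for 2 hours at 37° C. Supernatant IL-1β measured by hTRF (antibodies at 1:40, overnight at 4° C), read at 665/615 nm against a standard curve.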

TLR7 = molecular target: T2, TLR7 (Homo sapiens, UniProt Q9NYK1); assay: In vitro human TLR7 binding reporter assay (HEK-Blue, NF-kB/AP1-inducible SEAP); format: cell-based; details: read-out: TLR7 Agonist EC50
T2 construct: human HEK-Blue cells co-expressing a TLR7 or TLR8 gene
T2 sequence (Q9NYK1 27-1049): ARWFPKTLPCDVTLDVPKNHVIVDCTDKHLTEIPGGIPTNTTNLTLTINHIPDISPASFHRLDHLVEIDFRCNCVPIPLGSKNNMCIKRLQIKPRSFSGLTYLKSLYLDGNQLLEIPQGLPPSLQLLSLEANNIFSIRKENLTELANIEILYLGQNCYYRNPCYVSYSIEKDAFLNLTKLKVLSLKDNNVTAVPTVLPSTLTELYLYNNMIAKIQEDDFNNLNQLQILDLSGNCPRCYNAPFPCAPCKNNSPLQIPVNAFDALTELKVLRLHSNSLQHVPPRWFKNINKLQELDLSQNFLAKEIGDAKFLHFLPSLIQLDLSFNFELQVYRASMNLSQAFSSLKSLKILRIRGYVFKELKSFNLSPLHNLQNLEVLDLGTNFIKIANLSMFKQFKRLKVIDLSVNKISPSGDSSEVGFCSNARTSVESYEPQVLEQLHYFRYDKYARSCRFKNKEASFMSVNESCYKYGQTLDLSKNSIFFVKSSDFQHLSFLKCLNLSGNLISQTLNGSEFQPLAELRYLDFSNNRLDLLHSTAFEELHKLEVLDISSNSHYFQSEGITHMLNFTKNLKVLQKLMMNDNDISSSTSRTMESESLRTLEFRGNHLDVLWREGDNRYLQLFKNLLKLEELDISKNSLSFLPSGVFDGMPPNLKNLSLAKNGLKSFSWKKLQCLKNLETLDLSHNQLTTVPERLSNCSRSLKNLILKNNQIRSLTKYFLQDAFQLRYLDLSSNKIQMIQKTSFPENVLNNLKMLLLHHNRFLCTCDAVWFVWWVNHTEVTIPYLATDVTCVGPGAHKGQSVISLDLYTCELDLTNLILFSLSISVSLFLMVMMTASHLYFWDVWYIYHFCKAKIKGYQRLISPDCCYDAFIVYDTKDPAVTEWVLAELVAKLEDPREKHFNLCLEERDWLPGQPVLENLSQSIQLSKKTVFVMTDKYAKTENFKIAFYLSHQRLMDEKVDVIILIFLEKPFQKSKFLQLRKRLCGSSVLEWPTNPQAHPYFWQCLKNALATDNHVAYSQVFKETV
Summary of the method: as §1

[1] = Homo sapiens, THP-1, IL-1β production, human cells
[2] = Homo sapiens, THP-1, IL-1β production, human

Row | SMILES | EC50 (TLR8; activity range) [µM] | EC50 (THP-1 cells; [1]) [µM] | EC50 (TLR7; activity range) [µM] | EC50 (TLR8; activity range class) [µM] | EC50 (THP-1 cells; [2]) [µM] | EC50 (TLR7; activity range class) [µM] | EC50 (THP-1 cells; IL-1β production, human) [µM]
1 | NC(=O)CCCn1cc2c(N)nc3cc(-c4cc[nH]n4)ccc3c2n1 [Example 502] | > 100 | 1.68 | > 100 | – | – | – | –
2 | Nc1nc2cc(-c3cc[nH]n3)c(F)cc2c2nn(CCO)cc12 [Example 404] | > 100 | 0.74 | > 100 | – | – | – | –
3 | CC1(O)CCCC1n1cc2c(N)nc3cc(-c4cc[nH]n4)ccc3c2n1 (single isomer, unassigned) [Example 344] | – | – | – | > 100 | 1.02 | > 100 | –
4 | Nc1nc2cc(-c3cc[nH]n3)ccc2c2nn([C@H]3CC[C@@H](O)CC3)cc12 [Example 394] | – | – | – | > 100 | 0.46 | > 100 | –
5 | CC[C@H](O)Cn1cc2c(N)nc3cc(-c4cc[nH]n4)ccc3c2n1 [Example 367] | – | – | – | > 100 | 0.23 | > 100 | –
6 | Nc1nc2cc(-c3cc[nH]n3)ccc2c2cn(CCCOc3cccnc3)nc12 [Example 9] | – | – | – | > 100 | 0.57 | > 100 | –
7 | Nc1nc2cc(-c3cc[nH]n3)ccc2c2nn(Cc3cn[nH]c3)cc12 [Example 358] | – | – | – | > 100 | 0.18 | > 100 | –
8 | Nc1nc2cc(-c3ccn[nH]3)ccc2c2sc(CCNC(=O)c3ccccc3)nc12 [Example 135, N-(2-(4-amino-7-(1H-pyrazol-5-yl)thiazolo[4,5-c]quinolin-2-yl)ethyl) benzamide] | – | – | – | > 100 | 0.98 | > 100 | –
9 | CC(O)Cn1cc2c(N)nc3cc(-c4ccn[nH]4)ccc3c2n1 (stereo not drawn) [Example 282] | – | – | – | > 100 | 0.1 | > 100 | –
10 | Nc1nc2cc(-c3cc[nH]n3)ccc2c2cn(CC(=O)N3CCOCC3)nc12 [Example 532] | > 100 | 0.34 | > 100 | – | – | – | –
11 | Nc1nc2cc(-c3cc[nH]n3)c(F)cc2c2c1cnn2CCO [Example 403] | > 100 | 3.78 | > 100 | – | – | – | –
12 | COC1CCN(C(=O)CC(C)n2cc3c(N)nc4cc(-c5cc[nH]n5)ccc4c3n2)CC1 (stereo not drawn) [Example 623] | > 100 | 17.3 | > 100 | – | – | – | –
13 | CC(=O)N[C@H]1CCN(Cc2cc3c(N)nc4cc(-c5cc[nH]n5)ccc4c3[nH]2)C1 [Example 475] | > 100 | 1.21 | > 100 | – | – | – | –
14 | Nc1nc2cc(-c3cc[nH]n3)ccc2c2nn(C3CCCC3O)cc12 (single isomer, unassigned) [Example 315] | – | – | – | > 100 | – | > 100 | 0.89
15 | Nc1nc2cc(-c3cc[nH]n3)ccc2c2nn(CCOC(F)(F)F)cc12 [Example 352] | – | – | – | > 100 | 0.08 | > 100 | –
16 | CC(C)(Cn1cc2c(N)nc3cc(-c4ccn[nH]4)ccc3c2n1)C(=O)NCCS(C)(=O)=O [Example 609] | > 100 | 18.1 | > 100 | – | – | – | –
17 | Nc1nc2cc(-c3cc[nH]n3)ccc2c2nn(CC3(O)CCOCC3)cc12 [Example 320] | – | – | – | > 100 | 6.57 | > 100 | –

Row | SMILES | EC50 (TLR8; activity range) [µM] | EC50 (THP-1 cells; [1]) [µM] | EC50 (TLR7; activity range) [µM] | EC50 (TLR8; activity range class) [µM] | EC50 (THP-1 cells; [2]) [µM] | EC50 (TLR7; activity range class) [µM] | EC50 (THP-1 cells; IL-1β production, human) [µM]
18 | Nc1nc2cc(-c3cc[nH]n3)ccc2c2cn(CCNC(=O)c3ccc(Cl)cn3)nc12 [Example 72] | – | – | – | 20 to 100 | 0.14 | 20 to 100 | –
19 | Nc1nc2cc(-c3cc[nH]n3)ccc2c2cn(CCN3CC4COCC4C3)nc12 (stereo not drawn) [Example 30, 2-(2-{hexahydro-1H-furo[3,4-c]pyrrol-5-yl}ethyl)-7-(1H-pyrazol-3-yl)-2H-pyrazolo[3,4-c]quinolin-4-amine] | – | – | – | > 100 | 0.77 | > 100 | –
20 | COCCn1cc2c(N)nc3cc(-n4cccn4)ccc3c2n1 [Example 247, 2-(2-methoxyethyl)-7-(1H-pyrazol-1-yl)-2H-pyrazolo[4,3-c]quinolin-4-amine] | – | – | – | > 100 | 0.44 | > 100 | –
21 | Nc1nc2cc(-c3cc[nH]n3)ccc2c2cn(CCNC(=O)c3ccon3)nc12 [Example 69] | – | – | – | > 100 | 0.7 | > 100 | –
22 | CC(CO)n1cc2c(n1)c(N)nc1cc(-c3ccn[nH]3)ccc12 (stereo not drawn) [Example 453] | > 100 | 0.31 | > 100 | – | – | – | –
23 | CCOCCn1cc2c(n1)c(N)nc1cc(-c3ccn[nH]3)ccc12 [Example 190] | – | – | – | > 100 | 0.22 | > 100 | –
24 | CC(C)(O)Cn1cc2c(N)nc3cc(-c4ccn[nH]4)ccc3c2n1 [Example 283] | – | – | – | > 100 | 0.12 | > 100 | –
25 | COCCNCc1cc2c(N)nc3cc(-c4cc[nH]n4)ccc3c2[nH]1 [Example 419] | > 100 | 0.35 | > 100 | – | – | – | –
26 | Nc1nc2cc(-n3cccn3)ccc2c2nn(CCO)cc12 [Example 249, 2-(4-amino-7-(1H-pyrazol-1-yl)-2H-pyrazolo[4,3-c]quinolin-2-yl)ethan-1-ol] | – | – | – | > 100 | 0.64 | > 100 | –
27 | CC(C)NCCn1cc2c(n1)c(N)nc1cc(-c3cc[nH]n3)ccc12 [Example 109] | – | – | – | 20 to 100 | 1.78 | 20 to 100 | –
28 | Nc1nc2cc(-c3cc[nH]n3)ccc2c2nn(CC(O)CC(F)(F)F)cc12 (single isomer, unassigned) [Example 379] | – | – | – | > 100 | – | > 100 | 0.32
29 | Nc1nc2cc(-c3cc[nH]n3)ccc2c2nn(CCCOC(F)(F)F)cc12 [Example 350] | – | – | – | > 100 | 0.35 | > 100 | –
30 | CC(C)(CO)NC(=O)C(C)(C)n1cc2c(N)nc3cc(-c4cc[nH]n4)ccc3c2n1 [Example 522] | > 100 | 12.2 | > 100 | – | – | – | –
31 | CC(C(=O)N(C)C)n1cc2c(N)nc3cc(-c4ccn[nH]4)ccc3c2n1 (stereo not drawn) [Example 561] | > 100 | 0.95 | > 100 | – | – | – | –
32 | Nc1nc2cc(-c3cc[nH]n3)ccc2c2cn(CCNC(=O)c3csc(-c4ccncc4)n3)nc12 [Example 86] | – | – | – | > 100 | 2.77 | > 100 | –
33 | N#CCCCCn1cc2c(N)nc3cc(-n4cccn4)ccc3c2n1 [Example 559] | > 100 | 0.6 | > 100 | – | – | – | –
34 | Nc1nc2cc(-c3cc[nH]n3)ccc2c2cn(CCCN3CCOCC3)nc12 [Example 27] | – | – | – | > 100 | 0.43 | > 100 | –
